Like-named read-outs stand apart in the source and are kept apart here.
Columns and labels:
[1] = tested on: HepG2 cells; test: MTT cell proliferation assay, HepG2; assay type: cell-based; details: read-out: IC50 Value (Mean ± SD mM) HepG2
Description: (§1) PC-3, LNCaP, RWPE-1, HepG2, A549, and PANC-1 cells were purchased from the National Collection of Authenticated Cell Cultures (Shanghai, China). […] All the above cell cultures were supplied with 10% fetal bovine serum and 1% penicillin-streptomycin. RWPE-1 cells were cultured in keratinocyte serum-free medium (K-SFM, Gibco, New York, NY, USA) supplemented with 50 mg/L bovine pituitary extract and 5 μg/L epidermal growth factor (EGF). All cell lines were grown in a humidified atmosphere of 5% CO2 at 37 °C.
(§2) Cells were seeded in 100 μL complete medium in a 96-well plate, at a density of 10,000 cells/well for LNCaP and 5000 cells/well for other cells. Cells were pre-incubated for 24 h to allow for adherence before removal of complete medium and treatment with various concentrations of compounds in fetal bovine serum (FBS)-free medium for 48 h. After treatment, 20 μL/well MTT (5 mg/mL) was added and incubated for 3–4 h at 37 °C, and then 100 μL/well DMSO was added for MTT assay. The plate was shaken on an orbital shaker for 10 min. Absorbance was measured using a microplate reader at 492 nm for the MTT assay (performed in triplicates). Cell viability was normalized to control. Half inhibitory concentration (IC50) was calculated by SPSS Statistics 17.0. […] The experiments were independently repeated two to three times.

[2] = tested on: RWPE-1 cells; test: MTT cell proliferation assay, RWPE-1; assay type: cell-based; details: for IC50: MTT, 48 h treatment in FBS-free medium, read-out: IC50 Value (Mean ± SD mM) RWPE-1
Description: as §1, §2

[3] = tested on: PC-3 and LNCaP cells; test: MTT cell proliferation assay, PCa cell lines; assay type: cell-based; details: Homo sapiens, read-out: IC50 values on PCa cell lines
Description: (§3) PC-3, LNCaP, RWPE-1, HepG2, A549, and PANC-1 cells were purchased from the National Collection of Authenticated Cell Cultures (Shanghai, China). PC-3 and A549 cells were cultured in F-12K Nutrient Mixture (Gibco, New York, NY, USA), LNCaP in RPMI 1640 (Gibco, New York, NY, USA), PANC-1 in Dulbecco’s Modified Eagle Medium (DMEM, Gibco, New York, NY, USA), and HepG2 in minimal essential medium (MEM, Gibco, New York, NY, USA). All the above cell cultures were supplied with 10% fetal bovine serum and 1% penicillin-streptomycin. RWPE-1 cells were cultured in keratinocyte serum-free medium (K-SFM, Gibco, New York, NY, USA) supplemented with 50 mg/L bovine pituitary extract and 5 μg/L epidermal growth factor (EGF). All cell lines were grown in a humidified atmosphere of 5% CO2 at 37 °C.
(§4) Cells were seeded in 100 μL complete medium in a 96-well plate, at a density of 10,000 cells/well for LNCaP and 5000 cells/well for other cells. Cells were pre-incubated for 24 h to allow for adherence before removal of complete medium and treatment with various concentrations of compounds in fetal bovine serum (FBS)-free medium for 48 h. After treatment, 20 μL/well MTT (5 mg/mL) was added and incubated for 3–4 h at 37 °C, and then 100 μL/well DMSO was added for MTT assay. The plate was shaken on an orbital shaker for 10 min. Absorbance was measured using a microplate reader at 492 nm for the MTT assay (performed in triplicates). Cell viability was normalized to control. Half inhibitory concentration (IC50) was calculated by SPSS Statistics 17.0. The combination index (CI) isobologram equation was used for the quantitative determination of the interaction between two compounds [62]:(1) Combination index CI =CA,x/ICx,A+CB,x/ICx,B where CA,x and CB,x are compound concentrations that […], and ICx,A and ICx,B are compound concentrations that provide the same effect when being used in combination. The experiments were independently repeated two to three times.

[4] = tested on: A549 cells; test: MTT cell proliferation assay, A549; assay type: cell-based; details: read-out: IC50 Value (Mean ± SD mM) A549
Description: as §1, §2

[5] = tested on: A549, HepG2, and PANC-1 cells; test: MTT cell proliferation assay, other three cancer cell lines; assay type: cell-based; details: A549, HepG2, and PANC-1, text summary
Description: as §1, §2

[6] = tested on: LNCaP cells; test: MTT cell proliferation assay, LNCaP; assay type: cell-based; details: 48 h treatment in FBS-free medium, read-out: IC50 Value (Mean ± SD mM) LNCaP
Description: as §1, §2

[7] = tested on: PC-3 cells; test: MTT cell proliferation assay, PC-3; assay type: cell-based, human; details: read-out: IC50 Value (Mean ± SD mM) PC-3
Description: as §1, §2

[8] = tested on: PANC-1 cells; test: MTT cell proliferation assay, PANC-1; assay type: cell-based; details: read-out: IC50 Value (Mean ± SD mM) PANC-1
Description: as §1, §2

[9] = tested on: PC-3, LNCaP, RWPE-1, A549, PANC-1, and HepG2 cells; test: MTT cell proliferation assay, all cell lines; assay type: cell-based
Description: as §3, §4

[10] = tested on: human castration-resistant PCa cells DU145 and PC3; design: method as in PMID 33945018; details: cited from earlier work
[11] = tested on: ovarian cancer; design: method as in PMID 27121207; details: intraperitoneal injections of 10 mg/kg; cited from earlier work
[12] = tested on: PC-3 xenograft tumors; test: PC-3 xenograft mouse model; assay type: in vivo; details: 200 mg/kg
Description: Five-week-old male BALB/c nude mice were purchased from Charles River Laboratories (Beijing, China) and raised in a temperature and humidity-controlled environment (25 ± 2 °C, 50% ± 10% humidity) with a standard 12 h light-dark cycle with food and water in cages under germ-free conditions (SCXK2021-0006). All procedures involving animals and their care were approved by the Institutional Animal Care and Use Committee of the Ocean University of China in accordance with institutional and National Institutes of Health guidelines (OUC-SMP-2022-01-01). PC-3 cells (4 × 10^6 dissolved in 150 μL PBS) were injected subcutaneously into the armpit area of each mouse. For the first treatment group, when tumors reached 50 mm^3, 80 mg/kg of tryptamine dissolved in normal saline with 0.1% formic acid was administered intraperitoneally once every other day for 32 days (n = 6). […] The control groups were administrated with the vehicle. The tumor volume (mm^3) was calculated based on the formula:(2) Tumor volume (mm^3)=length×width^2/2

[13] = Homo sapiens, HepG2, 48 h treatment in FBS-free medium
[14] = Homo sapiens, A549, 48 h treatment in FBS-free medium
[15] = Homo sapiens, PC-3, 48 h treatment in FBS-free medium
[16] = Homo sapiens, PANC-1, 48 h treatment in FBS-free medium
[17] = all cell lines tested, read-out: IC50 values for all six cell lines tested
[18] = discussion summary, all cancer cell lines tested, read-out: IC50 values in all cancer cell lines tested
[19] = 48 h treatment in FBS-free medium

| Compound | IC50 [1, 13] | IC50 ([2]; Homo sapiens, RWPE-1) | IC50 [4, 14] | IC50 ([6]; Homo sapiens, LNCaP) | IC50 [7, 15] | IC50 [8, 16] | IC50 [9, 17] | further results |
| --- | --- | --- | --- | --- | --- | --- | --- | --- |
| N[C@@H](Cc1c[nH]c2ccccc12)C(=O)O [Tryptophan] | 1.54 ± 0.04 mM | 0.76 ± 0.03 mM | 1.5 ± 0.15 mM | 6.51 ± 0.29 mM | 1.89 ± 0.13 mM | 4.54 ± 0.19 mM | – | IC50 ([3]; LNCaP): 1900 to 6500 µM; IC50 [5]: 1500 to 4500 µM |
| Nc1c(C(=O)O)c2nc3c(C(=O)O)cccc3oc-2cc1=O [CA, cinnabarinic acid] | 0.1 ± 0.01 mM | 0.4 ± 0.01 mM | 0.21 ± 0.01 mM | 0.24 ± 0.01 mM | 0.17 ± 0.01 mM | 0.25 ± 0.04 mM | ≤ 900 µM | – |
| O=C(O)c1cc(=O)c2ccccc2[nH]1 [KYNA, kynurenic acid] | – | 4.39 ± 0.1 mM | – | 9.74 ± 1.3 mM | 8.76 ± 1.18 mM | – | – | effect on DU145 and PC3 cells [10]: scarce or no effect; IC50 ([3]; PC-3 and LNCaP): > 5000 µM; IC50 [9, 18]: > 3000 µM |
| COc1ccc2[nH]cc(CCNC(C)=O)c2c1 [Melatonin] | 1.48 ± 0.1 mM | 1.47 ± 0.1 mM | 2.31 ± 0.06 mM | 1.25 ± 0.12 mM | 1.28 ± 0.06 mM | 2.02 ± 0.09 mM | ≥ 1000 µM | – |
| NCCc1c[nH]c2ccc(O)cc12 [5-HT, 5-hydroxytryptamine] | 1.05 ± 0.17 mM | 1.66 ± 0.01 mM | 1.89 ± 0.09 mM | 1.12 ± 0.04 mM | 1.07 ± 0.03 mM | 1.34 ± 0.13 mM | ≥ 1000 µM | tumor weight increase [11]: ~60% |
| O=C(O)c1cccnc1C(=O)O [QA, quinolinic acid] | – | 3.2 ± 0.16 mM | – | 6.83 ± 0.42 mM | 6 ± 1.32 mM | – | – | IC50 ([3]; PC-3 and LNCaP): > 5000 µM; IC50 [9, 18]: > 3000 µM |
| COc1cc([C@@H]2c3cc4c(cc3[C@@H](O[C@@H]3O[C@@H]5CO[C@@H](C)O[C@H]5[C@H](O)[C@H]3O)[C@H]3COC(=O)[C@H]23)OCO4)cc(OC)c1O [Etoposide, reference compound] | 0.03 ± 0.001 mM | 0.016 ± 0.001 mM | 0.041 ± 0.002 mM | 0.032 ± 0.001 mM | 0.064 ± 0.001 mM | 0.042 ± 0.001 mM | – | – |
| N[C@@H](Cc1c[nH]c2ccc(O)cc12)C(=O)O [5-HTP, 5-hydroxytryptophan] | – | 0.85 ± 0.05 mM | – | 1.8 ± 0.17 mM | 0.99 ± 0.04 mM | – | – | – |
| Nc1ccccc1C(=O)CC(N)C(=O)O (centres unmarked) [Kynurenine, kynurenine] | 1.93 ± 0.03 mM | 2.79 ± 0.05 mM | 2.46 ± 0.05 mM | 1.78 ± 0.18 mM | 2.02 ± 0.05 mM | 2.63 ± 0.04 mM | ≥ 1000 µM | – |
| Nc1c(O)cccc1C(=O)CC(N)C(=O)O (centres unmarked) [3-HK, 3-hydroxykynurenine] | – | – | – | – | – | – | ≤ 900 µM | IC50 [1, 19]: 0.25 ± 0.01 mM; IC50 [2]: 0.36 ± 0.01 mM; IC50 [4, 19]: 0.29 ± 0.01 mM; IC50 [6]: 0.29 ± 0.01 mM; IC50 [7, 19]: 0.55 ± 0.01 mM; IC50 [8, 19]: 0.25 ± 0.01 mM |
| Nc1c(O)cccc1C(=O)O [3-HAA, 3-hydroxyanthranilic acid] | 0.42 ± 0.02 mM | 0.38 ± 0.01 mM | 0.27 ± 0.01 mM | 0.65 ± 0.06 mM | 0.9 ± 0.04 mM | 0.41 ± 0.01 mM | ≤ 900 µM | tumor size ([12]; intraperitoneal administration): No difference in tumor size; tumor size ([12]; intratumoral administration): No difference in tumor size; Effect on proliferation of RWPE-1 cells ([2]; concentrations between 0.03 and 0.1 mM): promoted the proliferation |
| O=C(O)c1ccccn1 [Picolinic acid] | – | 1.48 ± 0.06 mM | – | 5.75 mM | 4.95 ± 0.19 mM | – | – | – |
| NCCc1ccc(O)cc1 [Tyramine, reference compound] | 1.53 ± 0.05 mM | 2.99 ± 0.08 mM | 3.18 ± 0.24 mM | 1.71 ± 0.12 mM | 1.53 ± 0.04 mM | 0.77 ± 0.04 mM | – | – |
| NCCc1ccccc1 [β-phenylethylamine, reference compound] | – | – | – | – | – | – | – | IC50 [1, 19]: 1.01 ± 0.03 mM; IC50 [2]: 2.51 ± 0.19 mM; IC50 [4, 19]: 0.72 ± 0.06 mM; IC50 [6]: 0.69 ± 0.06 mM; IC50 [7, 19]: 0.44 ± 0.01 mM; IC50 [8, 19]: 1.47 ± 0.07 mM |
| c1ccc2[nH]ccc2c1 [Indole] | – | 0.9 ± 0.06 mM | – | 0.98 ± 0.02 mM | 0.7 ± 0.02 mM | – | – | – |

Source: article PMC9569450, “Dual Effect of Tryptamine on Prostate Cancer Cell Growth Regulation: A Pilot Study” (International Journal of Molecular Sciences, 2022)
